Measured values reported in patent publication US20210318318A1, “Kinase Activity In Tumors” (Institute For Cancer Research d/b/a The Research Institute …, priority 2018, published 2021).

Assays:
Experiment in all cases: MIB/MS kinome profiling of inhibitor-treated OVSAHO cells
Type in all cases: cell-based
Settings in all cases: 2 μM, 4 hours
AAK1 = target: T1, AAK1 (Homo sapiens, UniProt Q2M2I8)
T1 construct: endogenous in cells; host or cells: OVSAHO
Protocol: (§1) OVSAHO cells were treated with 2 μM of inhibitor for 4 hours and analyzed by MIB/MS. Scatterplot depicts difference in kinase MIB-binding of drug treated relative to control DMSO as determined by Students T-test.
(§2) MIB-based kinome profiling was performed on several of these molecules in HGSOC cells to determine kinome-wide inhibition profiles.
(§3) Experiments using MIB/MS were performed as previously described (Duncan et al., Cell, 2012, 149, 307-321; and Kurimchak et al., Cell Reports, 2016, 16, 1273-1286). Briefly, cells or tumors were lysed on ice in buffer containing 50 mM HEPES (pH 7.5), 0.5% Triton X-100, 150 mM NaCl, 1 mM EDTA, 1 mM EGTA, 10 mM sodium fluoride, 2.5 mM sodium orthovanadate, 1× protease inhibitor cocktail (Roche), and 1% each of phosphatase inhibitor cocktails 2 and 3 (Sigma). Particulate was removed by centrifugation of lysates at 13,000 rpm for 10 minutes at 4° C. and filtration through 0.2 μm syringe filters. Protein concentrations were determined by BCA analysis (Thermo). To compare kinome signatures within and across such large sample sizes, a super-SILAC method was designed (Neubert et al., Nat. Meth., 2010, 7, 361-362) consisting of a cocktail of cancer cell lines that encompasses the activity of the “cancer kinome” to be used as a control for individual samples. Five cancer cell lines were selected from the NCI-60 panel (UACC257, MOLT4, COL0205, ACHN and PC3) that differed in their origin, gene expression patterns and mutation status. The cancer cell lines were labeled using SILAC and mixed equally providing a diverse SILAC ([^13C6,^15N4] arginine (Arg^10) and […] (Lys^8)) heavy kinome reference standard (HKS) to be used repeatedly in kinome profiling assays. An equal amount of the HKS was added to the non-labeled sample (cell, tumor or normal tissue) providing a quantitative strategy to compare kinome activity/levels across samples, amongst treatments and, importantly, across time. Endogenous kinases were isolated by flowing lysates over kinase inhibitor-conjugated Sepharose beads (purvalanol B, VI16832, PP58 and CTx-0294885 beads were used) in 10 ml gravity-flow columns. After 2×10 ml column washes in high-salt buffer and 1×10 ml wash in low-salt buffer (containing 50 mM HEPES (pH 7.5), 0.5% Triton X-100, 1 mM EDTA, 1 mM EGTA, and 10 mM sodium fluoride, and 1M NaCl or 150 mM NaCl, respectively), retained kinases were eluted from the column by boiling in 2×500 μL of 0.5% SDS, 0.1 M TrisHCl (pH 6.8), and 1% 2-mercaptoethanol. Eluted peptides were reduced by incubation with 5 mM DTT at 60° C. for 25 minutes, alkylated with 20 mM iodoacetamide at room temperature for 30 minutes in the dark and alkylation was quenched with DTT. Samples were concentrated to approximately 100 μL with Millipore 10 kD cutoff spin concentrators. Detergent was removed by chloroform/methanol extraction, and the protein pellet was resuspended in 100 mM ammonium bicarbonate and digested with sequencing-grade modified trypsin (Promega) overnight at 37° C. […]
(§4) Proteolytic peptides were resuspended in 0.1% formic acid and separated with a Thermo RSLC Ultimate 3000 on a Thermo Easy-Spray C18 PepMap 75 μm×50 cm C-18 2 μm column with a 240 minute gradient of 4-25% acetonitrile with 0.1% formic acid at 300 nL/min and 50° C. Eluted peptides were analyzed by a Thermo Q Exactive plus mass spectrometer utilizing a top 15 methodology in which the 15 most intense peptide precursor ions were subjected to fragmentation. […]

PRCKD = target: T2, PRCKD (Homo sapiens, UniProt Q05655)
T2 construct: endogenous in cells; host or cells: OVSAHO
T2 sequence (Q05655 whole entry): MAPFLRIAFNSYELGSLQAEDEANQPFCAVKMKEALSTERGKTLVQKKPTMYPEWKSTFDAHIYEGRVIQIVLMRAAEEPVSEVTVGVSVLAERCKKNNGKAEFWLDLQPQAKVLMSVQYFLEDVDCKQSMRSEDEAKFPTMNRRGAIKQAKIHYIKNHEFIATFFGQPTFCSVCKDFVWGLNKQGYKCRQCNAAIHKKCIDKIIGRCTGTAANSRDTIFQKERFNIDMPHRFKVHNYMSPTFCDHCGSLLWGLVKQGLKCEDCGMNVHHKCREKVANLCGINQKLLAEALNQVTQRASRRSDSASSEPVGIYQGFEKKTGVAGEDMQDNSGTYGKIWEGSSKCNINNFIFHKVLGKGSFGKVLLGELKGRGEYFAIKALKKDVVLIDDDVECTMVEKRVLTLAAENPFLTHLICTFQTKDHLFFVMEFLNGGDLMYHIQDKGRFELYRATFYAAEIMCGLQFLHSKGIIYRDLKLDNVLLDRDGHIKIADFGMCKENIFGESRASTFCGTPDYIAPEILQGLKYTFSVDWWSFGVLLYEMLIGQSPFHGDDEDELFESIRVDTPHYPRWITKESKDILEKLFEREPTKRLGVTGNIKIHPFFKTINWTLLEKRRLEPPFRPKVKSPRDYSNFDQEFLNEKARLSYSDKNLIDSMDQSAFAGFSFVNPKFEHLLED
Protocol: as §1, §2, §3, §4

CDK8 = target: T3, CDK8 (Homo sapiens, UniProt P49336)
T3 construct: endogenous in cells; host or cells: OVSAHO
T3 sequence (P49336 whole entry): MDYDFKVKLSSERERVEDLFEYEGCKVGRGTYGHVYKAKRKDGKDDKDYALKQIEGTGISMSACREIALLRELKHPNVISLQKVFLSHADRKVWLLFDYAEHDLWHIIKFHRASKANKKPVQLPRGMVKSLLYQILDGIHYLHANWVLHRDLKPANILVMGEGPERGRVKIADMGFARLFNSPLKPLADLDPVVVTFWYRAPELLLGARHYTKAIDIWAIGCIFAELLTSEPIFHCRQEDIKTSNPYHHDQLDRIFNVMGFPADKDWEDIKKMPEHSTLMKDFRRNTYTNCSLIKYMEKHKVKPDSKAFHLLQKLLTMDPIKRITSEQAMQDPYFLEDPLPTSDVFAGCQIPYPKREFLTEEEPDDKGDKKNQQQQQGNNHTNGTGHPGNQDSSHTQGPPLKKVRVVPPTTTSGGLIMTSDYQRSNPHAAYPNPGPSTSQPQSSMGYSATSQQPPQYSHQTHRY
T3 sequence (P24863 whole entry partner): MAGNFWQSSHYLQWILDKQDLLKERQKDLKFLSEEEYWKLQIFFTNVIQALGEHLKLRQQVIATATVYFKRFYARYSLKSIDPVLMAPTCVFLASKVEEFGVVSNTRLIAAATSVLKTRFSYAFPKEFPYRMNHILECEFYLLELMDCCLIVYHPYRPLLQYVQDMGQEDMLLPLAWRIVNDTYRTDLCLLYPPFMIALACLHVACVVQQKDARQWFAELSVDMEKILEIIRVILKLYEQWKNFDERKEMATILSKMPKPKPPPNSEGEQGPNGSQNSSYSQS
Protocol: as §1, §2, §3, §4

MAP3K12 = target: T4, MAP3K12 (Homo sapiens, UniProt Q12852)
T4 construct: endogenous in cells; host or cells: OVSAHO
T4 sequence (Q12852 1-859): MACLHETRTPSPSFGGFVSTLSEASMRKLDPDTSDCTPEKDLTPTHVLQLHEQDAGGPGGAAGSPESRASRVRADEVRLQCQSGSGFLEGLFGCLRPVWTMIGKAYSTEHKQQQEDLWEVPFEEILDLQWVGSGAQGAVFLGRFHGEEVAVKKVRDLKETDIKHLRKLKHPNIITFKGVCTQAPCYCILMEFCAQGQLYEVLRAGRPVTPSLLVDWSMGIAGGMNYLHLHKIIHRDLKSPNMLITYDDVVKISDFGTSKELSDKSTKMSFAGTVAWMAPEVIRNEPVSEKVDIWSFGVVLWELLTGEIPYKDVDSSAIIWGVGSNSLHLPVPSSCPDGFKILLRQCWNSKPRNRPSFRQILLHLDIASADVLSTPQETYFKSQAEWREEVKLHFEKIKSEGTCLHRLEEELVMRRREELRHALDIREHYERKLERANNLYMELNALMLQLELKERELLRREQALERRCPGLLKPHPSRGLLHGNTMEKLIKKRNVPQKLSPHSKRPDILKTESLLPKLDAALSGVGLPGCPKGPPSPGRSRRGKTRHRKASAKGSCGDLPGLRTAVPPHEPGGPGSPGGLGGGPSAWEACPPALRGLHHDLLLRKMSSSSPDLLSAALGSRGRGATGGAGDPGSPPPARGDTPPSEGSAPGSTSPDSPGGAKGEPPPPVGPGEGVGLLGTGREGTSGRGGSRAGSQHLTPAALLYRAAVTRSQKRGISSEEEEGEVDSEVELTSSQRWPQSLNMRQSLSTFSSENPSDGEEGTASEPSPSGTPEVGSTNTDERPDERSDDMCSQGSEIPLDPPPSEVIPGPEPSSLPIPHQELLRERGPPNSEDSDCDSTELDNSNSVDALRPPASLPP
Protocol: as §1, §2, §3, §4

CLK2 = target: T5, CLK2 (Homo sapiens, UniProt P49760)
T5 construct: endogenous in cells; host or cells: OVSAHO
T5 sequence (P49760 whole entry): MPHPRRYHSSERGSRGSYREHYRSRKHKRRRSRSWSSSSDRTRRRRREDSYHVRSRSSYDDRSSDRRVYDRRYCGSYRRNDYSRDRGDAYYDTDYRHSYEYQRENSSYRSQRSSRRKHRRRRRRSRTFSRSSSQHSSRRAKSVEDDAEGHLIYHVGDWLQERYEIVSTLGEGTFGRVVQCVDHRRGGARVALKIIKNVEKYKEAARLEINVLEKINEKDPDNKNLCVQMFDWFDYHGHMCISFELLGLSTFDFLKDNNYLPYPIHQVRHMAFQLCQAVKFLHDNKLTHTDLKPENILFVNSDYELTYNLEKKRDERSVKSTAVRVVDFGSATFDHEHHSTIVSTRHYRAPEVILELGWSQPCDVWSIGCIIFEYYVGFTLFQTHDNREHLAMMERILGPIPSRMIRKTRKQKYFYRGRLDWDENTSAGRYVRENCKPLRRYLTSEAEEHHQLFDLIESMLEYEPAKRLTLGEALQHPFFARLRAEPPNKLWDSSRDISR
Protocol: as §1, §2, §3, §4

T1 sequence (Q2M2I8 whole entry): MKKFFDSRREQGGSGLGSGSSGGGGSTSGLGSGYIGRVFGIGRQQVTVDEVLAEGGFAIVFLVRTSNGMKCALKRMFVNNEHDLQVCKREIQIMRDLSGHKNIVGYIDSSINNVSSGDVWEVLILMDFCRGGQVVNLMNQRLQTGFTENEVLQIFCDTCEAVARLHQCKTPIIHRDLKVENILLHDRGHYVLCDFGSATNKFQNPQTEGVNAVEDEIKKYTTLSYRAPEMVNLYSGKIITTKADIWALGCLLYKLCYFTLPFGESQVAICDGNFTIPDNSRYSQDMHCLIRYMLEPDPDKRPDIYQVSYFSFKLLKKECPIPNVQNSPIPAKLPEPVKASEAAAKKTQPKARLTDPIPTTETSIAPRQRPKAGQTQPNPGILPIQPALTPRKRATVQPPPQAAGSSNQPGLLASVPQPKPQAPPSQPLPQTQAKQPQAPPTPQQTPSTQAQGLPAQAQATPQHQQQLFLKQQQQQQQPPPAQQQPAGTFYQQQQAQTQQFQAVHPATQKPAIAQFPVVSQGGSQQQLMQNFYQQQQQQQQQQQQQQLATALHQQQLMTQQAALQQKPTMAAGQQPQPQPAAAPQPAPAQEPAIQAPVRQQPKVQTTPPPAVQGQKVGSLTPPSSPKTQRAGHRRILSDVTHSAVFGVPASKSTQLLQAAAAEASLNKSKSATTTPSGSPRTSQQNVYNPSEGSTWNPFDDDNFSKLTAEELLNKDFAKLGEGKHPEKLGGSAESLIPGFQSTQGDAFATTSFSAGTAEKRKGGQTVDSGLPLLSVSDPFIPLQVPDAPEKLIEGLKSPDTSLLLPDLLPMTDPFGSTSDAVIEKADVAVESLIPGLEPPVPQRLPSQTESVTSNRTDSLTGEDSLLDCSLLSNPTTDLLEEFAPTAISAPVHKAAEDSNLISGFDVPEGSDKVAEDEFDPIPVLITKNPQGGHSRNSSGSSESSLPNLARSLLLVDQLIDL

Cc1[nH]nc2ccc(-c3cncc(OC[C@@H](N)Cc4ccccc4)c3)cc12 [A-674563]
inhibited: MIB-binding of AAK1 (AAK1) | MIB-binding of PRCKD (PRCKD) | MIB-binding of CDK8 (CDK8) | MIB-binding of MAP3K12 (MAP3K12) | MIB-binding of CLK2 (CLK2)
